According to US20020039567A1, “Methods of treating bone or cartilage conditions by the administration of creatine” (priority 1998, published 2002):

How the values were obtained:
[1] = tested on: embryonic chick femora; details: cited from earlier work
[2] = tested on: osteoblasts (micromass culture); assay: Mitochondrial activity (MTT conversion), micromass osteoblast cell culture; format: cell-based, rat; details: for MTT reaction: 2 weeks vs 1 week
Experimental: (§1) This isolation technique is based on the ability of osteoblasts to migrate from bone onto a substratum. Parietal and frontal calvariae (4 per animal) were aseptically explanted from 6 day-old IcoIbm rats. The calvariae were placed in Tyrode's balanced salt solution, calcium and magnesium free (TESS). The periosteum was enzymatically removed with 0.05% trypsin and 0.02% collagenase A (0.76 U/mg) dissolved in TBSS (40 calvaria/20 ml). The calvariae were shaken for 70 minutes in a waterbath at 37° C. They were washed with TESS and then transferred to 60 mm culture dishes (40 calvariae/dish) containing 5 ml of 0.02% collagenase A (0.76 U/mg) in culture medium BGJb Fitton-Jackson modification and placed in the incubator for 4 hours. The calvariae were then washed with culture medium B supplemented with 10% foetal calf serum (FCS). The calvariae were transferred into 60 mm culture dishes (4 frontal and 4 parietal/dish). The growth medium supplemented with 10% FCS and 50 μg/ml ascorbate was completely changed every 48 hours. The culture was kept for 3 weeks.
After 3 weeks the migrated cells were harvested. The dish was washed with TESS, and 5 ml of TESS containing 0.05% trypsin and 0.02% collagenase A (0.76 U/mg) was added. After 1 hour in the incubator, the dish was washed with culture medium BGJb supplemented with 10% FCS. The dishes containing the calvariae and cells were rinsed with serum containing media BGJb. […] The viability of the resuspended cells was examined by the dye exclusion of 0.4% trypan blue, and the cells were counted in a haeinocytometer. […]
Originally, Mosmann, 1983 described the general principle involved in the detection of cell growth/cell death as indicated by the conversion of the tetrazolium salt (MTT) to the colored formazan by mitochondrial dehydrogenases. The concentration of this can then be measured spectrophotoinetrically. […]
6. The absorbance of the supernatant (3 aliquots/dish) was read at 550 nm versus DMSO.
If the absorbance was higher than 1, the samples were diluted with DMSO.

[3] = tested on: osteoblasts (monolayer culture); assay: Alkaline phosphatase activity (histochemically), monolayer osteoblast cell culture; format: cell-based, rat; details: 3 weeks
Experimental: as §1, with “weeks. After 3 weeks the migrated cells were harvested. The dish was washed with TESS, and 5 ml of TESS containing 0.05% trypsin and 0.02% collagenase A (0.76 U/mg) was added. […] The viability of the resuspended cells was examined by the dye exclusion of 0.4% trypan blue, and the cells were counted in a haeinocytometer. […]” for “weeks.”

## CN(CC(=O)O)C(=N)N [creatine]
[1]; 0.1 mM in chick embryo extract with 20% horse serum
  perichondral ossification in the diaphysis: accelerated
[1]; very crude preparations at 0.1 mM in chick embryo extract with 20% horse serum
  deposition of calcium in the cartilage matrix of the epiphysis: accelerated
[2]; 10 mM creatine, p<0.02
  MTT reaction: significantly higher MTT reaction
[2]; 20 mM creatine, p<0.006
  MTT reaction: significantly higher MTT reaction
[2]; 20 mM creatine, 3 weeks vs 2 weeks, p<0.015
  MTT conversion: significantly lower MTT conversion

## N=C(N)NCCC(=O)O [GPA, beta-guanidinopropionic acid]
[3]; GPA groups
  cell density around the nodules: lower than in the control and the creatine groups
[3]; higher magnification, compared with control and creatine groups
  staining pattern for the ALP activity: different staining pattern
